Assay results as given in PubChem BioAssay AID248 (DTP/NCI, 2004).
“And” between values parts separate entries of the source, which are not always exact repeats. Equal entries are not always repeated. Inconclusive results and toxic doses are left out. Rule as the data show it: active = T/C of 150% or more; inactive = T/C below 125%.

System: L1210 leukemia ip in BDF1 mice, survival T/C
Assay: NCI In Vivo Anticancer Drug Screen. Data for tumor model L1210 Leukemia (intraperitoneal) in B6D2F1 (BDF1) mice
Details: endpoint: mean survival time, higher = longer survival
Method in brief: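 Antitumor effect is assessed in tumor-bearing animals. Survival in the compound arm is compared with a vehicle-dosed control arm and expressed as their quotient.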

[1] = dose: 100.0 mg/kg/injection, schedule: Q01DX001 (ip), vehicle: Klucel (hydroxypropylcellulose) (HPC)
[2] = dose: 200.0 mg/kg/injection, schedule: Q01DX001 (ip), vehicle: Klucel (hydroxypropylcellulose) (HPC)
[3] = dose: 100.0 mg/kg/injection, schedule: Q04DX003 (ip), vehicle: saline with Tween-80
[4] = dose: 200.0 mg/kg/injection, schedule: Q04DX003 (ip), vehicle: saline with Tween-80
[5] = dose: 400.0 mg/kg/injection, schedule: Q04DX003 (ip), vehicle: saline with Tween-80
[6] = dose: 100.0 mg/kg/injection, schedule: Q04DX002 (ip), vehicle: saline
[7] = dose: 100.0 mg/kg/injection, schedule: Q01DX009 (ip), vehicle: Klucel (hydroxypropylcellulose) (HPC)
[8] = dose: 100.0 mg/kg/injection, schedule: Q04DX003 (ip), vehicle: Klucel (hydroxypropylcellulose) (HPC)
[9] = dose: 200.0 mg/kg/injection, schedule: Q04DX003 (ip), vehicle: Klucel (hydroxypropylcellulose) (HPC)
[10] = dose: 400.0 mg/kg/injection, schedule: Q04DX003 (ip), vehicle: Klucel (hydroxypropylcellulose) (HPC)
[11] = dose: 100.0 mg/kg/injection, schedule: Q01DX001 (ip), vehicle: saline
[12] = dose: 200.0 mg/kg/injection, schedule: Q01DX001 (ip), vehicle: saline
[13] = dose: 400.0 mg/kg/injection, schedule: Q01DX001 (ip), vehicle: saline
[14] = dose: 200.0 mg/kg/injection, schedule: Q01DX009 (ip), vehicle: Klucel (hydroxypropylcellulose) (HPC)
[15] = dose: 400.0 mg/kg/injection, schedule: Q01DX009 (ip), vehicle: Klucel (hydroxypropylcellulose) (HPC)
[16] = dose: 100.0 mg/kg/injection, schedule: Q04DX003 (ip), vehicle: saline
[17] = dose: 200.0 mg/kg/injection, schedule: Q04DX003 (ip), vehicle: saline
[18] = dose: 400.0 mg/kg/injection, schedule: Q04DX003 (ip), vehicle: saline
[19] = dose: 100.0 mg/kg/injection, schedule: Q01DX001 (ip), vehicle: other
[20] = dose: 200.0 mg/kg/injection, schedule: Q01DX001 (ip), vehicle: other
[21] = dose: 100.0 mg/kg/injection, schedule: Q01DX009 (ip), vehicle: saline with Tween-80
[22] = dose: 200.0 mg/kg/injection, schedule: Q01DX009 (ip), vehicle: saline with Tween-80
[23] = dose: 400.0 mg/kg/injection, schedule: Q01DX009 (ip), vehicle: saline with Tween-80
[24] = dose: 100.0 mg/kg/injection, schedule: Q01DX001 (ip), vehicle: saline with Tween-80
[25] = dose: 100.0 mg/kg/injection, schedule: Q01DX009 (ip), vehicle: saline
[26] = dose: 200.0 mg/kg/injection, schedule: Q01DX009 (ip), vehicle: saline

Measured: T/C

Nc1nc(N)c2c(n1)SCC(/C=N/O)=N2
inactive: [1] 108 % of control | [2] 95 % of control | dose: 400.0 mg/kg/injection, schedule: Q01DX001 (ip), vehicle: Klucel (hydroxypropylcellulose) (HPC) 97 % of control

CNC(=O)c1ccc(C(=O)NC)cc1
inactive: [3] 94 % of control | [4] 103 % of control | [5] 100 % of control

CCCCCCCCc1ccc(OC(C)OCCOCCOCC)cc1 (stereo unspecified)
inactive: [6] 88 % of control | dose: 200.0 mg/kg/injection, schedule: Q04DX002 (ip), vehicle: saline 88 % of control | dose: 400.0 mg/kg/injection, schedule: Q04DX002 (ip), vehicle: saline 98 % of control

CC(=O)Nc1cccc2cc(O)ccc12
inactive: dose: 100.0 mg/kg/injection, schedule: Q04DX003 (ip), vehicle: gum acacia 98 % of control | dose: 200.0 mg/kg/injection, schedule: Q04DX003 (ip), vehicle: gum acacia 100 % of control | dose: 400.0 mg/kg/injection, schedule: Q04DX003 (ip), vehicle: gum acacia 88 % of control

Cc1c(N2CCCCC2)[nH]c2ccccc12
inactive: [7] 87 % of control | [8] 96 % of control | [9] 95 % of control | [10] 88 % of control

O=[N+]([O-])c1ccccc1S(=O)(=O)C1CC1c1ccccc1 (stereo unspecified)
inactive: [11] 109 % of control | [12] 102 % of control | [13] 103 % of control

CC1=CC(=N/S(=O)(=O)c2ccccc2)/C2CC(C)=C(C)CC2/C1=N\S(=O)(=O)c1ccccc1 (stereo unspecified)
inactive: [7] 95 % of control | [8] 95 % of control | [14] 104 % of control | [9] 92 % of control | [15] 103 % of control

Cc1nc2n[nH]c(N)c2nc1C
inactive: [16] 98 % of control | [17] 91 % of control | [18] 88 % of control

CCCOC(=O)c1ccc([N+](=O)[O-])o1
inactive: [1] 95 % of control | [2] 92 % of control

Cc1ccc(Nc2nc(N)nc(N)c2C=O)cc1C
inactive: dose: 50.0 mg/kg/injection, schedule: Q01DX001 (ip), vehicle: saline 109 % of control | [11] 109 % of control | [12] 100 % of control | [13] 97 % of control

Nc1ccc2ncccc2c1[N+](=O)[O-]
inactive: [19] 87 % of control | [20] 93 % of control

O=C1c2ccccc2C(=O)N1CNc1ccc(Cl)cn1
inactive: [21] 89 % of control | [22] 87 % of control | [23] 101 % of control

CN(N=O)C(=O)NC1C(CO)OC(n2cnc3c(N)ncnc32)C1O (stereo unspecified)
inactive: dose: 13.0 mg/kg/injection, schedule: Q01DX001 (ip), vehicle: saline with Tween-80 104 % of control | dose: 20.0 mg/kg/injection, schedule: Q01DX001 (ip), vehicle: saline with Tween-80 106 % of control | dose: 30.0 mg/kg/injection, schedule: Q01DX001 (ip), vehicle: saline with Tween-80 106 % of control | dose: 44.0 mg/kg/injection, schedule: Q01DX001 (ip), vehicle: saline with Tween-80 116 % of control | dose: 67.0 mg/kg/injection, schedule: Q01DX001 (ip), vehicle: saline with Tween-80 117 % of control | [24] 123 % of control | dose: 150.0 mg/kg/injection, schedule: Q01DX001 (ip), vehicle: saline with Tween-80 117 % of control

Nc1ccccc1SC(CC(=O)c1ccccc1)c1ccc([N+](=O)[O-])cc1 (stereo unspecified)
inactive: dose: 100.0 mg/kg/injection, schedule: Q01DX005 (ip), vehicle: Klucel (hydroxypropylcellulose) (HPC) 101 % of control | [7] 97 % of control | [14] 91 % of control | dose: 400.0 mg/kg/injection, schedule: Q01DX005 (ip), vehicle: Klucel (hydroxypropylcellulose) (HPC) 86 % of control | [15] 97 % of control

Cc1cc(C)c(NC(=S)NC(=O)C(C)Oc2ccccc2)c(C)c1 (stereo unspecified)
inactive: [24] 97 % of control | [21] 96 % of control and 100 % of control | dose: 100.0 mg/kg/injection, schedule: Q04DX002 (ip), vehicle: saline with Tween-80 101 % of control and 104 % of control | [3] 93 % of control | dose: 200.0 mg/kg/injection, schedule: Q01DX001 (ip), vehicle: saline with Tween-80 97 % of control | [22] 97 % of control and 92 % of control | dose: 200.0 mg/kg/injection, schedule: Q04DX002 (ip), vehicle: saline with Tween-80 97 % of control and 110 % of control | [4] 93 % of control | dose: 400.0 mg/kg/injection, schedule: Q01DX001 (ip), vehicle: saline with Tween-80 103 % of control | [23] 102 % of control | dose: 400.0 mg/kg/injection, schedule: Q04DX002 (ip), vehicle: saline with Tween-80 93 % of control and 121 % of control | [5] 93 % of control

COc1cc(CC2C(O)C3CCN2CC3)cc(OC)c1OC (stereo unspecified)
inactive: dose: 25.0 mg/kg/injection, schedule: Q04DX002 (ip), vehicle: saline 101 % of control | dose: 50.0 mg/kg/injection, schedule: Q04DX002 (ip), vehicle: saline 101 % of control | [6] 97 % of control and 104 % of control

CCCCCCCC(=O)CC(C)C
inactive: [7] 109 % of control | [8] 93 % of control | [14] 98 % of control | [9] 96 % of control | [15] 107 % of control | [10] 96 % of control

O=C1/C(=C/c2ccco2)CCC2CC3(CCC12)OCCO3 (stereo unspecified)
inactive: [25] 116 % of control | [16] 92 % of control | [26] 102 % of control | [17] 97 % of control | dose: 400.0 mg/kg/injection, schedule: Q01DX009 (ip), vehicle: saline 98 % of control | [18] 94 % of control

CCC(C(=O)O)c1ccccc1 (stereo unspecified)
inactive: dose: 50.0 mg/kg/injection, schedule: Q01DX009 (ip), vehicle: saline 93 % of control | [25] 97 % of control | [16] 89 % of control | [26] 90 % of control | [17] 90 % of control | [18] 95 % of control

CN=NC(=O)c1cccc2c1-c1ccccc1C2=O
inactive: [19] 87 % of control | [20] 96 % of control | dose: 400.0 mg/kg/injection, schedule: Q01DX001 (ip), vehicle: other 93 % of control

Cc1cc[n+](CCCCCCCCCO)cc1
inactive: [11] 103 % of control

Nc1ccc2c(c1)C1(NC(=O)NC1=O)c1cc(N)ccc1-2
inactive: dose: 50.0 mg/kg/injection, schedule: Q01DX001 (ip), vehicle: carboxymethylcellulose (CMC) 101 % of control | dose: 100.0 mg/kg/injection, schedule: Q01DX001 (ip), vehicle: carboxymethylcellulose (CMC) 101 % of control | dose: 200.0 mg/kg/injection, schedule: Q01DX001 (ip), vehicle: carboxymethylcellulose (CMC) 109 % of control | dose: 400.0 mg/kg/injection, schedule: Q01DX001 (ip), vehicle: carboxymethylcellulose (CMC) 103 % of control
